Source: patent US9963674B2, “Age-modified cells and methods for making age-modified cells” (Memorial Sloan-Kettering Cancer Center, priority 2013, dated 2018)

Tests used:
iPSC-derived mDA neurons = experiment: mDA neuron marker expression (NURR1, TH) as sign of acute toxicity; format: cell-based, human; conditions: treatment of mDA neurons
Description: Cells were fixed in 4% paraformaldehyde for 15 minutes. Blocking was performed in phosphate-buffered saline supplemented with 1% BSA, and 0.3% Triton X-100 for 30 minutes to 1 hour. Cells were stained overnight at 4° C. with primary antibodies diluted in blocking buffer. Following several washes, cells were stained with appropriate Alexa Fluor-labeled secondary antibodies (Molecular Probes, Carlsbad, Calif.) at 1:500 in blocking buffer for 30 minutes to 3 hours at room temperature. Cells were counterstained with 4′,6-diamidino-2-phenylindole (DAPI; Thermo Fisher, Rockford, Ill.) to visualize nuclei. Images were acquired with an Olympus IX81 microscope using a Hamamatsu ORCA CCD camera.
Cells were collected with a cell lifter (Corning, Tewksbury, Mass.) in ice-cold phosphate-buffered saline without calcium or magnesium (PBS−/−). Cell pellets were rapidly frozen on ethanol and dry ice and stored at −80° C. Cell pellets were thawed on ice and resuspended in 50-200 μl RIPA lysis buffer (50 mM Tris-HCl pH 8.0, 120 mM NaCl, 6 mM EDTA, 0.5% NP-40) with 1% sodium dodecyl sulfate (SDS). Cell suspensions were vortexed at 15-minute intervals during a 45-minute incubation on ice. Lysates were isolated following a 10,000 rpm spin for 10 minutes at 4° C. 20-40 μg samples were further diluted with 4× Laemmli sample buffer, boiled for 5 minutes at 95° C., and loaded onto a NuPAGE 4-12% Bis-Tris precast gel (Life Technologies). Gel electrophoresis was performed at 100 V for 2 hours. Gels were transferred to a methanol activated PVDF membrane using the XCell II Blot Module (Life Technologies) according to the manufacturer's instructions. Blots were blocked in 3% bovine serum albumin (BSA) in Tris buffered saline plus 0.1% Tween-20 (TBS-T) for 45 minutes at room temperature. […]
Following several washes with TBS-T, blots were incubated in appropriate HRP-labeled secondary antibodies (Jackson ImmunoResearch, West Grove, Pa.) for 1 hour at room temperature. […] Densitometry quantification was performed using ImageJ on blots from three independent experiments.

[1] = tested on: proliferating cells in iPSC-derived mDA neuron cultures; experiment: Mitomycin C treatment of iPSC-derived mDA neuron cultures; format: cell-based, human; conditions: 1 day following the final day 30 replating
Description: One to two days after plating, cells were treated with 1 μg/ml mitomycin C (Tocris) for 1 hour to kill any remaining proliferating contaminants. iPSC-derived mDA neurons were fed every 2 to 3 days and maintained without passaging until the desired timepoint for a given experiment. PO, laminin and fibronectin were added to the medium every 7-10 days to prevent neurons from lifting off.

[2] = tested on: doxycycline (dox)-inducible fibroblast line; experiment: Reversibility of progerin-induced nuclear changes in doxycycline-inducible fibroblast line; format: cell-based; conditions: following re-addition of doxycycline
motor neurons (MNs) = conditions: after trophic factor withdrawal (Yang et al.); cited from earlier work

**Q.** For N#CC(C#N)=NNc1cccc(Cl)c1 [CCCP, carbonyl cyanide 3-chlorophenylhydrazone, reference compound], which “mDA neuron marker expression after mitochondrial toxin” value (iPSC-derived mDA neurons) is on record?
**A.** rapidly induces mDA neuron marker loss

**Q.** Which post-mitotic neurons [1] does the source give for CO[C@@]12[C@H](COC(N)=O)C3=C(C(=O)C(C)=C(N)C3=O)N1C[C@@H]1N[C@@H]12 [Mitomycin C, mitomycin C] here?
**A.** unaffected

**Q.** And the remaining proliferating cells [1]?
**A.** helped to eliminate the remaining proliferating cells

**Q.** Which “time to reversal of progerin-induced changes in nuclear morphology” value [2] does the source give for C[C@H]1c2cccc(O)c2C(=O)C2=C(O)[C@]3(O)C(=O)C(C(N)=O)=C(O)[C@@H](N(C)C)[C@@H]3[C@@H](O)[C@@H]21 [doxycycline] here?
**A.** ≤ 10 days

**Q.** Which “survival of MNs” value (motor neurons (MNs)) does the source give for O=C1Cc2c([nH]c3ccc(Br)cc23)-c2ccccc2N1 [kenpaullone] here?
**A.** impressive ability to prolong the healthy survival of MNs
